The results in this text go back to patent US9221795B2, “Phosphatidylinositol 3-kinase inhibitors” (Gilead Sciences, Inc., priority 2013, dated 2015).

Bounds are passed on as bounds.

One data set deals with PI3Kδ (Homo sapiens (Human), UniProt O00329). The experiment in a line: Enzymatic activity of PI3K isoforms, TR-FRET assay (PI3Kδ). Particulars: 2× Km ATP, geometric mean if more than one value. The data set is classed as biochemical. The gist of the method:
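Recombinant heterodimeric PI3Kβ or PI3Kδ (25-50 pM) was run with 2 μM PIP2 and 2× Km ATP (75-500 μM) at pH 7.4, for 30 min at 25° C. PIP3 formation was detected by TR-FRET displacement of labeled PIP3 from Eu-GRP-1. IC50 values in nM come from four-parameter fits, as geometric means.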

The target of another data set is PI3Kβ (Homo sapiens (Human), UniProt P42338). The experiment in a line: Enzymatic activity of PI3K isoforms, TR-FRET assay (PI3Kβ). The data set is classed as biochemical. Particulars: 2× Km ATP, geometric mean if more than one value. The protocol:
Enzymatic activity of the class I PI3K isoforms in the presence of the compounds of Table 1 and Compounds X, Y and Z was measured using a time-resolved fluorescence resonance energy transfer (TR-FRET) assay. The TR-FRET assay was used to monitor formation of the product 3,4,5-inositol triphosphate molecule (PIP3) as it competed with fluorescently labeled PIP3 for binding to the GRP-1 pleckstrin homology domain protein. An increase in […] product results in a decrease in TR-FRET signal as the labeled fluorophore is displaced from the GRP-1 protein binding site.
Class I PI3K isoforms were expressed and purified as heterodimeric recombinant proteins. All assay reagents and buffers for the TR-FRET assay were purchased from Millipore. PI3K isoforms were assayed under initial rate conditions in the presence of 25 mM Hepes (pH 7.4), and 2× Km ATP (75-500 μM), 2 μM PIP2, 5% glycerol, 5 mM MgCl2, 50 mM NaCl, 0.05% (v/v) Chaps, 1 mM dithiothreitol, 1% (v/v) DMSO at the following concentrations for each isoforms: PI3Kα, PI3Kβ, and PI3Kδ between 25 and 50 pM, and PI3Kγ at 2 nM. After an assay reaction time of 30 minutes at 25° C., reactions were terminated with a final concentration of 10 mM EDTA, 10 nM labeled-PIP3, and 35 nM Europium labeled GRP-1 detector protein before reading TR-FRET on an Envision plate reader (Ex: 340 nm; Em: 615/665 nm; […] delay and 500 μs read window).
Data were normalized based on positive ([…] wortmanin) and negative (DMSO) controls. α, β, δ, and γ IC50 values were calculated from the fit of the dose-response curves to a four-parameter equation. All IC50 values represent geometric mean values if more than one value was obtained. IC50 values were reported in units of nM.

The next data set has as its system basophils. The experiment in a line: Basophil activation in human whole blood (Flow2 CAST kit, CD63 flow cytometry). The data set is classed as cell-based. The note with it: Homo sapiens, human whole blood, basophils activated with anti-FcεRI mAb or fMLP, percent CD63 positive cells.
Data set [1] is described as follows: Hepatocyte stability (parent drug disappearance in cryopreserved hepatocytes). The data set is classed as in vitro ADME, human. Particulars: human, cryopreserved human hepatocytes, human hepatocytes, 2 μM substrate, 37° C. The protocol:
This assay was used to evaluate the metabolic stability of test articles (TA) following incubation in cryopreserved hepatocytes by monitoring parent drug disappearance via LC/MC. The TA was incubated with 1 million hepatocytes/mL at 2 μM substrate in duplicate. The incubation was carried out at 37° C. with 5% CO2 and saturating humidity. Samples were taken at 0, 1, 2, and 4 hours to monitor the disappearance of TA and a half-life (t1/2) was determined. Table 3 below summarizes the human hepatocyte t1/2 values (hours) collected in the Example.

Chain of PI3Kδ (O00329 whole entry, canonical isoform): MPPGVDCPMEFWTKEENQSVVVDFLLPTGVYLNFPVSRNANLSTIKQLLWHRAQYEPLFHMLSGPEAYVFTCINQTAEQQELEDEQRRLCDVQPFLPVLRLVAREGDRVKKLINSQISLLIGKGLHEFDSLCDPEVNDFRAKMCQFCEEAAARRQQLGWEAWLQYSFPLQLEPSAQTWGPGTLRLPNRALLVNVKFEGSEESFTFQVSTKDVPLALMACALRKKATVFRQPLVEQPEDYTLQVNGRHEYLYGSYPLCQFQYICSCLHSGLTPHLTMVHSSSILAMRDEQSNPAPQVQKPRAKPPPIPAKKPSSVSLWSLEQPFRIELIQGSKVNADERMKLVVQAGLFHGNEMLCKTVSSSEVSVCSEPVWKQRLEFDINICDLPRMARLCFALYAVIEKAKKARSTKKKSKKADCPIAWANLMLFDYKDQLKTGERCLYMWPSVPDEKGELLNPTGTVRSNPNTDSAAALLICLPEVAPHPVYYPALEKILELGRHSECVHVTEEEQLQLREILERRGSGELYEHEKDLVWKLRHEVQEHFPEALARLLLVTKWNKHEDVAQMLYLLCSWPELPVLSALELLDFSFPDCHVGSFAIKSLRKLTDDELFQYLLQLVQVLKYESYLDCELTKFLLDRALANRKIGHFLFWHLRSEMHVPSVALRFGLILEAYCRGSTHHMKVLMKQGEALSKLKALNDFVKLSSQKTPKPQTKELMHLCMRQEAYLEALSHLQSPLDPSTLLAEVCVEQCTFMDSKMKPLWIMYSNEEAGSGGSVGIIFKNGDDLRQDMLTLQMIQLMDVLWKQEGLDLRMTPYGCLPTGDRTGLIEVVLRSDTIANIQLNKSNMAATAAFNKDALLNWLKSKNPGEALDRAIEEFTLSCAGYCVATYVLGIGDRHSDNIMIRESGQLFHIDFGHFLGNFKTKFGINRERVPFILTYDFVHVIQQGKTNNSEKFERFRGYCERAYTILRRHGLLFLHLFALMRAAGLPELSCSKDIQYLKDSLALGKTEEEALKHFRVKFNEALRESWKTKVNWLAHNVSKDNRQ
Chain of PI3Kδ (P27986 whole entry partner, canonical isoform): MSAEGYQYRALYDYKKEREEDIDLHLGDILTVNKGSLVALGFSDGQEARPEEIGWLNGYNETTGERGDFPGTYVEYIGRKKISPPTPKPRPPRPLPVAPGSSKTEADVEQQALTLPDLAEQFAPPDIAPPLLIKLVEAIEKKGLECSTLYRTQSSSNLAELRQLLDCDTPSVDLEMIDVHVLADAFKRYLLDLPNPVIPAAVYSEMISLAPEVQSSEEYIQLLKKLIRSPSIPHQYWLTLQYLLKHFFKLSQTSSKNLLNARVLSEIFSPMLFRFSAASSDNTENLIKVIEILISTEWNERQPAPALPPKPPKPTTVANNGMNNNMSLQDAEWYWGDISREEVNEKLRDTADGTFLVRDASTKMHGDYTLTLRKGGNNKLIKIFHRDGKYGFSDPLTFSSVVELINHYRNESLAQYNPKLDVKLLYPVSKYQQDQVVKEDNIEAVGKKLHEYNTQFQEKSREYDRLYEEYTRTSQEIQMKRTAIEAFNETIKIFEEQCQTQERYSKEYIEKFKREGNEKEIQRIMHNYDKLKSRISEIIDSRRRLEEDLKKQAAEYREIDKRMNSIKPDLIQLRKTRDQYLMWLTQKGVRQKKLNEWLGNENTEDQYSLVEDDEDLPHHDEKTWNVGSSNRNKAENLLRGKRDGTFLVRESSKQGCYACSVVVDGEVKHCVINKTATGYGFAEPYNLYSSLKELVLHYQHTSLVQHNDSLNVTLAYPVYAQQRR
Chain of PI3Kβ (P42338 whole entry, the tested form may be a part, canonical isoform): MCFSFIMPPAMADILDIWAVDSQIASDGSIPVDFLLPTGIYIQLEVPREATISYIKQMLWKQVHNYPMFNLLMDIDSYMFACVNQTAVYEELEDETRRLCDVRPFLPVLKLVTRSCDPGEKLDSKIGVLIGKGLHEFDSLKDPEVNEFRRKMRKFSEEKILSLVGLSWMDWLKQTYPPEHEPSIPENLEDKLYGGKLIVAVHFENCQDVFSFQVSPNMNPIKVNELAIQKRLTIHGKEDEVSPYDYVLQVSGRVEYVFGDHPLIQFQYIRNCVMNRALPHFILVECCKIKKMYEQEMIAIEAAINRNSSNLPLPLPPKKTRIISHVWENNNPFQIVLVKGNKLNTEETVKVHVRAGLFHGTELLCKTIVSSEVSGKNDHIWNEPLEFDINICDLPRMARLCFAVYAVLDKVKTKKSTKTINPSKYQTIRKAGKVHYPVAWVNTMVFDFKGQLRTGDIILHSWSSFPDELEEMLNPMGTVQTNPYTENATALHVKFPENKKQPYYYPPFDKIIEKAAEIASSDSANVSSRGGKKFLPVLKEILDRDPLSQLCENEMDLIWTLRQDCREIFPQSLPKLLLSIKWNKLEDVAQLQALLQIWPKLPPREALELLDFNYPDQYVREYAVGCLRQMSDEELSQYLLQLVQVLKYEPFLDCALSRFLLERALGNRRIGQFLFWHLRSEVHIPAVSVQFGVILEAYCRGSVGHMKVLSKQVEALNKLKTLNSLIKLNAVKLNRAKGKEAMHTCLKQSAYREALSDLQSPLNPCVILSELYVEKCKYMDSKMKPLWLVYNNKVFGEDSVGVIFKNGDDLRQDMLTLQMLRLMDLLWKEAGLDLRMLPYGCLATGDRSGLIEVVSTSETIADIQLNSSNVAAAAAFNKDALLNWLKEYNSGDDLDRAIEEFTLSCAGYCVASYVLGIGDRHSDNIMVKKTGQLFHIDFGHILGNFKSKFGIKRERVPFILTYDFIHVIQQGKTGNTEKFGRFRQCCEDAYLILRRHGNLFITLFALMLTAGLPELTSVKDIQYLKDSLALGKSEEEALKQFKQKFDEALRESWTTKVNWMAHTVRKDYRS
Chain of PI3Kβ (P27986 whole entry partner, the tested form may be a part, canonical isoform): as the sequence (P27986 whole entry partner, canonical isoform) above

As to `CC[C@H](Nc1nc(N)nc(N)c1C#N)c1nc2cccc(Cl)c2c(=O)n1-c1cnc(N)cc1C` (atropisomer, axis not shown) [Compound 91, (S)-2,4-diamino-6-((1-(3-(6-amino-4-methylpyridin-3-yl)-5-chloro-4-oxo-3,4-dihydroquinazolin-2-yl)propyl)amino)pyrimidine-5-carbonitrile], the IC50 was 4 nM against PI3Kδ and 99 nM against PI3Kβ.
In the case of `Cc1cc(N)ncc1-n1c([C@H](C)Nc2nc(N)nc(N)c2C#N)nc2cccc(Cl)c2c1=O` (atropisomer, axis not shown) [Compound 93, (S)-2,4-diamino-6-((1-(3-(6-amino-4-methylpyridin-3-yl)-5-chloro-4-oxo-3,4-dihydroquinazolin-2-yl)ethyl)amino)pyrimidine-5-carbonitrile], the figures for the half-inhibitory concentration (IC50) at PI3Kδ and at PI3Kβ were 2 nM and 30 nM, respectively.
On to `CC[C@H](Nc1nc(N)nc(N)c1C#N)c1nc2cccc(Cl)c2c(=O)n1-c1cncc(F)c1` [Compound 20, (S)-2,4-diamino-6-(1-(5-chloro-3-(5-fluoropyridin-3-yl)-4-oxo-3,4-dihydroquinazolin-2-yl)propylamino)pyrimidine-5-carbonitrile], for which half-maximal inhibition at PI3Kδ (IC50) was put at 3 nM. Further, the EC50 in the data set on basophils (class symbol) was 1 to 10 nM; with basophils (geometric mean), 3 nM. Further, the half-life at 2 μM in data set [1] (class symbol) and in data set [1] (Table 3) was above 10 h in each case.
At PI3Kδ, `N#Cc1c(N)nc(N)nc1N[C@H](c1nc2cccc(Cl)c2c(=O)n1-c1cncc(F)c1)C1CC1` [Compound 21, (S)-2,4-diamino-6-((5-chloro-3-(5-fluoropyridin-3-yl)-4-oxo-3,4-dihydroquinazolin-2-yl)(cyclopropyl)methylamino)pyrimidine-5-carbonitrile] displayed an IC50 of 2 nM. The figures for the EC50 in the data set on basophils (class symbol) and in the data set on basophils (geometric mean) were 1 to 10 nM and 4 nM, respectively. Further, the half-life at 2 μM in data set [1] (class symbol) and in data set [1] (Table 3) was above 10 h throughout.
Compound `C[C@H](Nc1nc(N)nc(N)c1C#N)c1nc2c(Cl)cccc2c(=O)n1-c1cccnc1` [Compound 22, (S)-2,4-diamino-6-(1-(8-chloro-4-oxo-3-(pyridin-3-yl)-3,4-dihydroquinazolin-2-yl)ethylamino)pyrimidine-5-carbonitrile] yielded an IC50 on PI3Kδ of 6 nM. Besides, the concentration giving a half-maximal response (EC50) in the data set with basophils (class symbol) was 1 to 10 nM; in the data set with basophils (geometric mean), 5 nM. Also, the values for the half-life at 2 μM in data set [1] (class symbol) and in data set [1] (Table 3) were 6 to 10 h and 9 h, respectively.
Turning to `C[C@H](Nc1nc(N)nc(N)c1C#N)c1nc2c(Cl)ccc(Cl)c2c(=O)n1-c1cccnc1` [Compound 23, (S)-2,4-diamino-6-(1-(5,8-dichloro-4-oxo-3-(pyridin-3-yl)-3,4-dihydroquinazolin-2-yl)ethylamino)pyrimidine-5-carbonitrile], at PI3Kδ, the IC50 was 0.7 nM. The EC50 was below 1 nM with basophils (class symbol) and 0.8 nM with basophils (geometric mean). For the same compound, the half-life at 2 μM in data set [1] (class symbol) and in data set [1] (Table 3) was above 10 h throughout.
In the case of `C[C@H](Nc1nc(N)nc(N)c1C#N)c1nc2c(F)ccc(Cl)c2c(=O)n1-c1cccnc1` [Compound 24, (S)-2,4-diamino-6-(1-(5-chloro-8-fluoro-4-oxo-3-(pyridin-3-yl)-3,4-dihydroquinazolin-2-yl)ethylamino)pyrimidine-5-carbonitrile], the midpoint of inhibition on PI3Kδ, the IC50, lay at 0.4 nM. The 50% effective concentration (EC50) is below 1 nM in the data set with basophils (class symbol) and 0.3 nM in the data set on basophils (geometric mean). Besides, the half-life at 2 μM in data set [1] (class symbol) and in data set [1] (Table 3) was above 10 h in each case.
For the compound `CC[C@H](Nc1nc(N)nc(N)c1C#N)c1nc2c(F)ccc(Cl)c2c(=O)n1-c1cccnc1` [Compound 26, (S)-2,4-diamino-6-(1-(5-chloro-8-fluoro-4-oxo-3-(pyridin-3-yl)-3,4-dihydroquinazolin-2-yl)propylamino)pyrimidine-5-carbonitrile], at PI3Kδ, the midpoint of inhibition, the IC50, lay at 1 nM. In addition, the EC50 with basophils (class symbol) is below 1 nM; in the data set on basophils (geometric mean), 0.7 nM. Moreover, the half-life at 2 μM in data set [1] (class symbol) and in data set [1] (Table 3) was above 10 h throughout.
`N#Cc1c(N)nc(N)nc1N[C@H](c1nc2c(F)ccc(Cl)c2c(=O)n1-c1cccnc1)C1CC1` [Compound 27, (S)-2,4-diamino-6-((5-chloro-8-fluoro-4-oxo-3-(pyridin-3-yl)-3,4-dihydroquinazolin-2-yl)(cyclopropyl)methylamino)pyrimidine-5-carbonitrile] yielded an IC50 against PI3Kδ of 1 nM. For the same compound, the EC50 with basophils (class symbol) is below 1 nM; in the data set with basophils (geometric mean) it was 0.7 nM. The half-life at 2 μM in data set [1] (class symbol) and in data set [1] (Table 3) was above 10 h each time.
`N#Cc1c(N)nc(N)nc1N[C@H](c1nc2c(Cl)ccc(Cl)c2c(=O)n1-c1cccnc1)C1CC1` [Compound 28, (S)-2,4-diamino-6-(cyclopropyl(5,8-dichloro-4-oxo-3-(pyridin-3-yl)-3,4-dihydroquinazolin-2-yl)methylamino)pyrimidine-5-carbonitrile]: the concentration for half-maximal inhibition (IC50) on PI3Kδ came to 0.6 nM. The concentration for a half-maximal effect (EC50) was 1 to 10 nM in the data set on basophils (class symbol) and 4 nM with basophils (geometric mean). In addition, the values for the half-life at 2 μM in data set [1] (class symbol) and in data set [1] (Table 3) were 6 to 10 h and 9 h, respectively.
With `N#Cc1c(N)nc(N)nc1N[C@@H](CC1CC1)c1nc2c(F)ccc(Cl)c2c(=O)n1-c1cccnc1` [Compound 29, (S)-2,4-diamino-6-(1-(5-chloro-8-fluoro-4-oxo-3-(pyridin-3-yl)-3,4-dihydroquinazolin-2-yl)-2-cyclopropylethylamino)pyrimidine-5-carbonitrile], it took 8 nM to reach half-maximal inhibition on PI3Kδ (IC50). For the same compound, the EC50 in the data set with basophils (class symbol) is 10 to 50 nM; with basophils (geometric mean), 10 nM. For the same compound, the half-life at 2 μM in data set [1] (class symbol) and in data set [1] (Table 3) was above 10 h throughout.
Take `C[C@H](Nc1nc(N)nc(N)c1C#N)c1nc2c(Cl)ccc(Cl)c2c(=O)n1-c1cncc(F)c1` [Compound 30, (S)-2,4-diamino-6-(1-(5,8-dichloro-3-(5-fluoropyridin-3-yl)-4-oxo-3,4-dihydroquinazolin-2-yl)ethylamino)pyrimidine-5-carbonitrile]: the IC50 at PI3Kδ is 1 nM. Further, the figures for the EC50 with basophils (class symbol) and with basophils (geometric mean) were below 1 nM and 0.7 nM, respectively. The results for the half-life at 2 μM in data set [1] (class symbol) and in data set [1] (Table 3) were 6 to 10 h and 9 h, respectively.
As to `C[C@H](Nc1nc(N)nc(N)c1C#N)c1nc2c(F)ccc(Cl)c2c(=O)n1-c1cncc(F)c1` [Compound 31, (S)-2,4-diamino-6-(1-(5-chloro-8-fluoro-3-(5-fluoropyridin-3-yl)-4-oxo-3,4-dihydroquinazolin-2-yl)ethylamino)pyrimidine-5-carbonitrile], the IC50 against PI3Kδ turned out to be 1 nM. The figures for the EC50 in the data set on basophils (class symbol) and with basophils (geometric mean) were below 1 nM and 0.5 nM, respectively. Besides, the half-life at 2 μM in data set [1] (class symbol) and in data set [1] (Table 3) was above 10 h in each case.
In turn, `Cc1cncc(-n2c([C@H](C)Nc3nc(N)nc(N)c3C#N)nc3c(F)ccc(Cl)c3c2=O)c1` [Compound 32, (S)-2,4-diamino-6-(1-(5-chloro-8-fluoro-3-(5-methylpyridin-3-yl)-4-oxo-3,4-dihydroquinazolin-2-yl)ethylamino)pyrimidine-5-carbonitrile] gave an IC50 at PI3Kδ of 2 nM. In addition, the EC50 with basophils (class symbol) is below 1 nM; in the data set with basophils (geometric mean), 0.4 nM. Besides, the half-life at 2 μM in data set [1] (class symbol) and in data set [1] (Table 3) was above 10 h each time.
For `N#Cc1c(N)nc(N)nc1N[C@H](c1nc2c(F)ccc(Cl)c2c(=O)n1-c1cncc(F)c1)C1CC1` [Compound 33, (S)-2,4-diamino-6-((5-chloro-8-fluoro-3-(5-fluoropyridin-3-yl)-4-oxo-3,4-dihydroquinazolin-2-yl)(cyclopropyl)methylamino)pyrimidine-5-carbonitrile], the IC50 against PI3Kδ came to 2 nM. Further, the values for the 50% effective concentration (EC50) in the data set with basophils (class symbol) and with basophils (geometric mean) were 1 to 10 nM and 5 nM, respectively. Further, the half-life at 2 μM in data set [1] (class symbol) and in data set [1] (Table 3) was above 10 h each time.
